“Also recorded” adds a separate entry of the source.

Data set [1] relates to KRAS mutant CRC cells (HCT116, DLD1, CT26.WT). As to conditions: for effect on cell death induction by STS and vitamin C cotreatment: STS condition, GSH 5 mM or NAC 5 mM co-treated with vitamin C 350 μM, 24 hours.
In data set [2] the test system is ROS in HCT116 cells. In words: CellROX reactive oxygen species measurement. As to conditions: HCT116, GSH one hour prior to vitamin C 1 mM. It is filed as cell-based, human. The method, then: Intracellular reactive-oxygen species (ROS) were measured using the CellROX oxidative stress reagents (Life Technologies, Cat. #: 10422). CellROX fluorogenic probe is designed to measure reactive-oxygen species (ROS) in live cells. […] For ROS measurement, cells were seeded in 10 cm petri dish (4×10^5 cells in CTR medium). After 24 hours cells were rinsed twice in 1×PBS and CTR or STS medium was added. 24 hours later, cells were trypsinized, resuspended in their respective media, and treated with 1 mM sodium ascorbate and 1 μM CellROX deep red reagent in the dark, for 30 minutes at 37° C. and 5% CO2. Then, fluorescence was immediately analyzed by flow cytometry (Attune NxT flow cytometer). Data were processed by Kaluza analysis software (Beckman coulter, version 2.0). Data were expressed as fold change of the median fluorescent intensity (MFI) of each treated sample versus the MFI of control sample.

The subject of data set [3] is FTH. In words: FTH protein expression in cells (western blot). Format: cell-based, human and murine. As to conditions: HCT116, CTR and STS, hemin 20 μM 12 hours. The method, then:
Cells were washed twice in ice-cold PBS and lysates were prepared in RIPA lysis buffer (50 mM Tris HCl pH 7.4, 150 mM NaCl, 1% NP-40, 0.25% deoxycholic acid, 1 mM EDTA) supplemented with protease and phosphatase inhibitors (protease inhibitor cocktail set III EDTA-free, Calbiochem, Cat. #: S39134; PhosStop, Roche), Samples were sonicated (bioruptor plus, diogenode) and centrifuged at 16.1 g for 30 minutes at 4° C. Tumor tissues were collected and snap frozen in liquid nitrogen immediately after mice were sacrificed, and stored in -80° C. until use. […] Protein concentrations were determined by BCA assay (Thermo Fisher Scientific, Cat. #: 23225). Proteins were diluted in 1× Laemmli sample buffer, boiled at 95° C. for 5 minutes and 30 μg of total proteins were separated by using SDS-PAGE and analyzed by western blotting by standard procedures. […] Membranes were incubated overnight at 4° C. with gentle shaking with the following primary antibodies: […] ADI-SPA894), FTH (1:1000, Cell Signaling, Cat. #: 3998), AMPK (1:1000, Cell Signaling, Cat. #: 2532), phospho-[…] AMPK (1:1000, Cell Signaling, Cat. #: 2535), eIF2a (1:1000, Cell signaling, Cat. #: 5324), phospho […] eIF2a (1:1000, Cell signaling, Cat. #: 3597), AKT (1:1000, Cell Signaling, Cat. #: 9272), phospho-[…] […] Bands intensity was quantified with NIH Image J software (version 1.48v).
Background: A western blot detects proteins with antibodies after separation by electrophoresis.

Data set [4] relates to HO-1. In words: HO-1 expression in HCT116 (qPCR, western blot). As to conditions: HCT116, CTR and STS, hemin 20 μM 12 hours. Format: cell-based, human. Here is the method: Cells were washed twice in ice-cold PBS and lysates were prepared in RIPA lysis buffer (50 mM Tris HCl pH 7.4, 150 mM NaCl, 1% NP-40, 0.25% deoxycholic acid, 1 mM EDTA) supplemented with protease and phosphatase inhibitors (protease inhibitor cocktail set III EDTA-free, Calbiochem, Cat. #: S39134; PhosStop, Roche), Samples were sonicated (bioruptor plus, diogenode) and centrifuged at 16.1 g for 30 minutes at 4° C. Tumor tissues were collected and snap frozen in liquid nitrogen immediately after mice were sacrificed, and stored in -80° C. until use. […] Protein concentrations were determined by BCA assay (Thermo Fisher Scientific, Cat. #: 23225). Proteins were diluted in 1× Laemmli sample buffer, boiled at 95° C. for 5 minutes and 30 μg of total proteins were separated by using SDS-PAGE and analyzed by western blotting by standard procedures. […] Membranes were incubated overnight at 4° C. with gentle shaking with the following primary antibodies: […] ADI-SPA894), FTH (1:1000, Cell Signaling, Cat. #: 3998), AMPK (1:1000, Cell Signaling, Cat. #: 2532), phospho-[…] […] Bands intensity was quantified with NIH Image J software (version 1.48v). […] Resulting cDNA (1/20 v/v) was analyzed by real-time polymerase reaction (qRT-PCR) using TaqMan MBG probes with FAM reporter dyes. […]
A general note: Real-time PCR tracks product formation cycle by cycle.

For data set [5], the system named is HCT116 cells. In words: Muse cell viability assay (percentage of dead cells). As to conditions: for effect on STS + vitamin C cytotoxicity: HCT116, STS medium supplemented with transferrin, vitamin C 350 μM.
Data set [6] concerns HCT116 cells. In words: Erythrosin B exclusion assay. It is filed as cell-based, human. As to conditions: HCT116, 24 hours-STS before and during oxaliplatin 40 μM 24 hours. The method, then:
Erythrosin B is a vital dye that is impermeable to biological membranes, thus staining only unviable cells with disintegrated membranes (Kim et al., 2016).
The next day, cells were rinsed twice in 1×PBS and CTR or STS medium was added. […] Cell death was measured by erythrosine B exclusion assay. Cell suspension was diluted 1:1 with erythrosin B 0.1% in PBS (Sigma-Aldrich, Cat. #: 200964), then cells were counted in a Bürker chamber, and percentage of cell death was calculated as the number of Erythrosin B-positive cells with respect to the total number of cells.

Data set [7] deals with HCT116 cells. In words: MTT assay. Format: cell-based, human. As to conditions: HCT116, 24 hours-STS before and during oxaliplatin 40 μM 24 hours. The text has this:
The MTT [3-(4,5-Dimethylthiazol-2-yl)-2,5-diphenyltetrazolium bromide] assay is a quantitative colorimetric assay used to determine cell viability (Mosmann, 1983). MTT is characterized by a yellow colour, and upon its reduction to formazan by mitochondrial dehydrogenases, turns into a purple molecule, which has an absorbance peak at 570 nm. The absorbance is proportional to the amount of formazan produced, thus giving a measure of living cells, since the reaction only occur in living and metabolically active cells (Mosmann, 1983).
To evaluate viability, cells were seeded into a 96-well plate (2000 cells per well) in CTR medium. 24 hours later, cells were rinsed twice in 1×PBS, and CTR or STS medium was added. […] At the end of the experiment, medium was removed and cells were incubated with 100 μl of MTT (Sigma-Aldrich, Cat. #: M2128) solution (0.5 mg/ml, dissolved in medium) per well, for 3 hours at 37° C. in the dark. Next, 100 μl of lysis buffer (10% SDS, HCl 0.01M) were added to each well to dissolve formazan crystals and plates were incubated overnight at 37° C. Absorbance was recorded at the wavelength of 570 nm using a microplate reader (Infinite M200 TECAN). The absorbance values of media background were subtracted from the absorbance of each sample. No-treated samples were used as reference values (100% survival) to normalize the absorbance of treated samples.
For orientation: Formazan colour is commonly taken as a measure of viable cells.

In the case of `N[C@@H](CCC(=O)N[C@@H](CS)C(=O)NCC(=O)O)C(=O)O` [GSH, glutathione], in data set [1], the “effect on cell death induction by STS and vitamin C cotreatment” value is recorded as “able to revert the massive cell death induction”. In data set [2], the “effect on increase in ROS mediated by STS and STS+vitamin C” value is on record as “fully reversed the increase in ROS”.
For the molecule hemin, the “effect on cancer cell death induced by vitamin C alone or with STS” value in data set [1] (hemin 20 μM 3 hours before vitamin C 350 μM, CTR or STS) is reported as “able to reverse cancer cell death”. The “FTH protein expression level” value in data set [3] is recorded as “increases”. Besides, the “HO-1 protein expression level” value in data set [4] is listed as “increases”.
Turning to `C=CC1=C(C)c2cc3[n-]c(cc4nc(cc5[n-]c(cc1n2)c(C)c5C=C)C(C)=C4CCC(=O)O)c(CCC(=O)O)c3C.[Zn+2]` [ZnPP, zinc protoporphyrin], the “susceptibility to vitamin C toxicity” value in data set [1] (control medium, ZnPP 20 μM 3 hours before vitamin C 700 μM 24 hours) is “more susceptible to vitamin C toxicity”.
On to “holo-transferrin: Iron bound-transferrin”, for which the “effect on STS + vitamin C cytotoxicity” value in data set [5] is reported as “able to rescue the observed cytotoxicity; also recorded: reversed STS+vitamin C-mediated toxicity”.
For apo-transferrin: iron-free transferrin, the “effect on STS + vitamin C cytotoxicity” value in data set [5] was “not”.
With `O=C1[O][Pt]2([NH][C@@H]3CCCC[C@H]3[NH]2)[O]C1=O` [oxaliplatin], in data set [6], the “percentage of cell death” value is on record as “increase the percentage of cell death”. Further, the “percentage of metabolically active cells (MTT)” value in data set [7] is on record as “significantly decrease the percentage of metabolically active cells”.
For `CC(=O)N(O)CCCCCNC(=O)CCC(=O)N(O)CCCCCNC(=O)CCC(=O)N(O)CCCCCN` [DFO, desferrioxamine], the “effect on vitamin C-induced cytotoxicity” value in data set [5] (HCT116, STS, DFO 500 μM pre-treatment, cells washed before vitamin C 350 μM) is “rescued vitamin C-induced cell cytotoxicity”.
As for `CC(=O)N[C@@H](CS)C(=O)O` [NAC, N-acetyl cysteine], in data set [1], the “effect on cell death induction by STS and vitamin C cotreatment” value was “able to revert the massive cell death induction”.
MnTMPyP: the “effect on cell death upon STS + vitamin C” value in data set [5] (HCT116, STS, MnTMPyP 50 μM before vitamin C 350 μM 24 hours) is given as “inhibited cell death upon combinatorial treatment”.

B1: catalase: Catalase from bovine liver, membrane-impermeable ROS scavenger decomposing hydrogen peroxide (protein, UniProt P00432 2-527, looked up)
Catalase: ADNRDPASDQMKHWKEQRAAQKPDVLTTGGGNPVGDKLNSLTVGPRGPLLVQDVVFTDEMAHFDRERIPERVVHAKGAGAFGYFEVTHDITRYSKAKVFEHIGKRTPIAVRFSTVAGESGSADTVRDPRGFAVKFYTEDGNWDLVGNNTPIFFIRDALLFPSFIHSQKRNPQTHLKDPDMVWDFWSLRPESLHQVSFLFSDRGIPDGHRHMNGYGSHTFKLVNANGEAVYCKFHYKTDQGIKNLSVEDAARLAHEDPDYGLRDLFNAIATGNYPSWTLYIQVMTFSEAEIFPFNPFDLTKVWPHGDYPLIPVGKLVLNRNPVNYFAEVEQLAFDPSNMPPGIEPSPDKMLQGRLFAYPDTHRHRLGPNYLQIPVNCPYRARVANYQRDGPMCMMDNQGGAPNYYPNSFSAPEHQPSALEHRTHFSGDVQRFNSANDDNVTQVRTFYLKVLNEEQRKRLCENIAGHLKDAQLFIQKKAVKNFSDVHPEYGSRIQALLDKYNEEKPKNAVHTYVQHGSHLSAREKANL
On to B1, for which the “effect on STS-mediated sensitization to vitamin C” value in data set [5] (HCT116, STS, catalase 50 U/ml prior to vitamin C 350 μM 24 hours) is reported as “able to revert STS-mediated sensitization to vitamin C”.

(Values after patent US20210352950A1 (priority 2019, published 2021).)
